Test results from paper PMC11783601, “Analogue-Sensitive Inhibition of Histone Demethylases Uncovers Member-Specific Function in Ribosomal Protein Synthesis” (Journal of the American Chemical Society, 2025).

Tested on: TET2
Assay: MALDI-based assay for TET2 on 5-mC DNA substrate
Format: biochemical, human
Conditions: MALDI-TOF, 5mC oligonucleotide
Experimental: Aliquots were kept on ice for 10 minutes before addition of 200
µM 2OG or equivalent volume of water. After 30-60 minutes incubation at 37 °C, 1 µL sample and
1 µL S-DHB matrix were spotted on a MALDI plate and monitored with Bruker FlexControl in
the reflectron positive mode and analyzed on Bruker FlexAnalysis software. Relative inhibition
was monitored via assessing percent product decrease with L-Leu NOG samples compared to no
temperature for 10 minutes.

CC(C)CC(NC(=O)C(=O)O)C(=O)O (stereo not shown) [compound 6, N-oxalyl leucine]
inhibition of TET2: No inhibition
